# Laboratory results published in patent publication US11220527B2, “Peptides derived from the propeptide NTSR3 and their use in the treatment of depression” (CENTRE NATIONAL DE LA RECHERCHE SCIENTIFIQUE, priority 2016, dated 2022).
# Entries after “also recorded” stand apart in the source; their conditions may differ. Where a SMILES comes first, the peptide text is derived from it. The star is where a group is joined. Biotin = O=C1N[C@H]2[C@H](CS[C@H]2CCCCC(=O)*)N1
# Experiments:
# [1] = Learned helplessness test (LHT); type: in vivo; conditions: mice, bolus of 100 μL of a 10^-6 M solution 30 minutes before conditioning, FIG. 4
# Procedure: Learned resignation or learned helplessness is a model based on the repeated administration of electric shocks to induce a resigned state in the animal.
# The apparatus comprises two compartments separated by a sliding door and with a floor consisting of a metal grid through which the electrical pulses are administered. The learned helplessness protocol is divided into two stages, an animal conditioning stage and a test stage.
# The conditioning was carried out over a period of four days during which time the mice received 360 non-avoidable electric shocks of 0.3 mA for one hour (the door, separating the two compartments, being closed). The shocks lasted for 2 seconds and an interval of 8 seconds was respected between each shock. This conditioning step leads to a phenomenon of helplessness in animals.
# On the day of the test, the mice were placed in the same compartments but with a possibility of escaping the shock. The test counted 30 trials. During the administration of the shock, the door separating the two compartments opened, allowing the animals to flee. When the animal changes compartment the test is finished and the shock stops. […] This test made it possible to record the escape latencies of the animals. The thirty tests were then grouped by 5 and the average escape time was calculated. […]
# [2] = test system: BrdU-positive cells of the dentate gyrus of the hippocampus; test: Hippocampal neurogenesis by BrdU immunohistochemistry; type: in vivo; conditions: mice, four days of treatment, FIG. 5
# Procedure: BrdU (5-bromo-2′-deoxyuridine) is a synthetic nucleoside analogous to thymidine. It is incorporated during DNA replication during phase S (chromosome duplication during interphase) of the cells in division. Injection of BrdU makes it possible to visualize the cells in division of the tissue to be analyzed by means of immunological labeling. In the present study, the hippocampal neurogenesis of the mice was evaluated after treatment with spadin or the different analogs.
# After the behavioral tests, the mice were injected with BrdU at a final concentration of 120 mg/kg intraperitoneally, according to the modified protocol of Beauquis, J. et al. (Eur J Neurosci 23, 1539-1546, 2007). Four injections of 300 μl at 10 mg/ml, spaced two hours apart, were performed. 24 hours after the injections, the mice were anesthetized with pentobarbital (100 mg/kg) and then perfused intracardially. During the intracardiac perfusion, physiological saline was administered to remove all blood from the body of the mice, and then 4% paraformaldehyde (PFA) was perfused to fix the organs. Post-fixation in 4% PFA was also performed overnight. The brains of the mice were cut with a vibratome (Leica), which allowed 40 μm floating frontal sections to be obtained. The sections selected for the immunological reaction were those ranging from bregma 3.3 to 5.3. Eight sections were selected with a regular spacing, allowing the entire hippocampus to be covered while remaining homogeneous from one brain to another.
# The immunological reaction was performed by incubating an anti-BrdU primary antibody (BD Pharmingen, 1/8000), with the brain sections, overnight at 4° C. The brain sections were then washed in PBS (Phosphate Buffered Saline) and incubated for two hours with the secondary antibody (biotinylated goat anti-mouse antibody, Vector laboratories, 1/400). […]
# The sections were then mounted on slides and fixed with Entellan. BrdU-positive cells of the dentate gyrus of the hippocampus were counted in both hemispheres of each brain. […]
# [3] = test system: PSD-95 protein; test: Synaptogenesis: PSD-95 expression in cortical neurons by Western blot; type: cell-based, mouse C57BI/6J; conditions: 1 μM, 0-36 hours, normalized to ß-actin, FIG. 6
# Procedure: Pregnant female C57BI/6J mice (20-25 g, Janvier Labs, St Berthevin, France) were anesthetized by inhalation of 2% isoflurane mixed with 30% oxygen and 70% nitrous oxide, and then sacrificed. The embryos (E14) were removed and the cerebral cortex was dissected in PBS containing 1% glucose. Neurons were prepared from cerebral cortex by mechanical dissociation, as described in Brewer and Torricelli, 2007 [26]. The dissociated neurons were distributed in poly-L-lysine treated plates and cultured for up to 10 days in neurobasal medium containing 2% B27 (Invitrogen, Fisher Scientific, Illkirch, France) and 50 μg/ml gentamycin (Sigma France), at 37° C. under 5% CO2. […]
# Cortical neurons treated with peptides G/A-PE(22-28) and biotinylated G/A-PE(22-28) for different durations (0, 5, 8, 24 and 36 hours) were homogenized in Laemmli buffer and analyzed using 10% SDS-Page gels. […] The ß-actin contents were determined after extraction using a 1/5000 dilution of anti-β-actin antibodies (Santa Cruz mouse monoclonal antibody, dilution 1/5000). […] The proteins were detected with ECL Plus detection reagents (Amersham Biosciences) using the LAS-3000 imaging system (Fujifilm, Düsseldorf, Germany). The relative intensities of each labeled band were analyzed by densitometric scanning using ImageJ software (Wayne Rasband, National Institute of Health, Bethesda, Md., USA). […]
# [4] = target: T1, TREK-1 channels expressed on the ßTC3 cells (Mus musculus, UniProt P97438); test: Whole-cell patch clamp, I=f(V), on ßTC3 cells activated with arachidonic acid; type: cell-based; conditions: previously activated with arachidonic acid, FIG. 7A
# T1 construct: TREK-1 channels are present on the surface of beta-pancreatic cells such as beta-TC3 cells; endogenous in cells; host or cells: ßTC3 cells
# T1 sequence (P97438 1-426): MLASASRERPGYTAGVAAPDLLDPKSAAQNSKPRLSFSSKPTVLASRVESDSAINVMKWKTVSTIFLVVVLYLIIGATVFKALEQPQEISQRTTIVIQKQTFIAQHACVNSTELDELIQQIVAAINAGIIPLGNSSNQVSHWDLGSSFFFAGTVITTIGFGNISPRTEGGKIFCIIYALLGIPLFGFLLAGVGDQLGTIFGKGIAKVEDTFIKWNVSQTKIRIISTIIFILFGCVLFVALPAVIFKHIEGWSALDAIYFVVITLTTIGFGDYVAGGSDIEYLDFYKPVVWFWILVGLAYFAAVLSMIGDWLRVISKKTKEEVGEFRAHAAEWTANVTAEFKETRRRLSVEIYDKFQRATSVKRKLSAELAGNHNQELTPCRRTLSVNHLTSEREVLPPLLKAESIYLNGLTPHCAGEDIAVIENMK
# Procedure: (§1) All experiments measuring the effect of spadin analogs and spadin were performed on ßTC3 or LNCaP or HEK293 cells stably transfected with the TREK-1 channel, hTREK-1/HEK293. The hTREK-1/HEK293 cell line was prepared in the laboratory. These cells also express a reporter gene: E-Green Fluorescent Protein (EGFP) enabling their visualization.
# The ßTC3 cells were cultured in RPMI 1640 medium supplemented with 2.5% FCS, 50 μM beta-mercaptoethanol, 10 mM HEPES, 1 mM sodium pyruvate, 50 μg/ml gentamycin and 1% of a streptomycin+penicillin mixture, at 37° C. in the presence of 5% CO2.
# The LNCaP cells were cultured in DMEM medium (Gibco)/10% fetal calf serum (FCS, ICN)/1% streptomycin+penicillin mixture (Gibco)/1% glutamax (Gibco)/at 37° C. in the presence of 5% CO2. […] From day 2 to day 4, the cells were measured by electrophysiological methods.
# (§2) All measurements were made at room temperature, i.e. at 21-22° C. The hTREK-1/HEK293 cells were identified by the fluorescence emitted by EGFP after excitation at 480 nm. […]
# The cell culture medium was replaced with a solution 150 mM NaCl, 5 mM KCl, 3 mM MgCl2, 1 mM CaCl2, 10 mM HEPES/NaOH pH 7.4 containing 10 mM tetraethylammonium chloride, 3 mM 4-aminopyridine. […] The resting potential of the membrane of the measured cell was set at −80 mV. […]
# [5] = target: T2, TREK-1 channels expressed on the LNCaP cells (Homo sapiens, UniProt O95069); test: Whole-cell patch clamp, I=f(V), on LNCaP cells activated with arachidonic acid; type: cell-based; conditions: previously activated with arachidonic acid, FIG. 7B
# T2 construct: TREK-1 channels are also present on the surface of cancer cells such as LNCaP cells (prostate cancer); endogenous in cells; host or cells: LNCaP cells
# T2 sequence (O95069 1-426): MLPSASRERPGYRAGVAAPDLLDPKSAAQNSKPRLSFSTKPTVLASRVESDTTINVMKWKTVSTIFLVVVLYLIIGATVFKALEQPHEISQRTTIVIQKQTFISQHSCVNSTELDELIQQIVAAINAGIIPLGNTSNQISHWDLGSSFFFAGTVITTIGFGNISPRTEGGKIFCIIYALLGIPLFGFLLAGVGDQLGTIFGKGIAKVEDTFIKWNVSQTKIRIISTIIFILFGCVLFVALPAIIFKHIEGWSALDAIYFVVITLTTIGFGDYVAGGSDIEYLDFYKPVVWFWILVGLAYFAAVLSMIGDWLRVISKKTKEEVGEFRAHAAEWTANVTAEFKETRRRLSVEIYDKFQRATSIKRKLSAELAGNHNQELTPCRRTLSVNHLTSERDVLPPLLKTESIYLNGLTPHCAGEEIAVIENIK
# Procedure: as §1
# The LNCaP cells were cultured in DMEM medium (Gibco)/10% fetal calf serum (FCS, ICN)/1% streptomycin+penicillin mixture (Gibco)/1% glutamax (Gibco)/at 37° C. in the presence of 5% CO2. At day 1, the hTREK-1/HEK293 or BTC3 or LNCaP cells were seeded at 20,000 cells per 35 mm diameter dish containing 2 ml of culture medium. From day 2 to day 4, the cells were measured by electrophysiological methods.
# as §2
# The cell culture medium was replaced with a solution 150 mM NaCl, 5 mM KCl, 3 mM MgCl2, 1 mM CaCl2, 10 mM HEPES/NaOH pH 7.4 containing 10 mM tetraethylammonium chloride, 3 mM 4-aminopyridine. […] The resting potential of the membrane of the measured cell was set at −80 mV.
# The voltage variations were obtained either by continuous ramp (from −100 to +60 mV) or by a potential jump of 10 mV (from −100 to +60 mV, 1.5 seconds per jump). The data obtained were analyzed with the Pclamp software. […]
# [6] = test system: LNCaP cells; test: Growth of LNCaP cells by counting the cells in culture; type: cell-based; conditions: cell count after 24 or 48 h, FIG. 7C
# [7] = target: T3, TREK-1 channel (Homo sapiens, UniProt O95069); conditions: previously shown; cited from earlier work
# T3 sequence (O95069 1-426): T2 sequence (O95069 1-426)
compound,measurement,setting,value
CC(C)C[C@H](NC(=O)CNC(=O)[C@H](Cc1c[nH]c2ccccc12)NC(=O)[C@H](CO)NC(=O)[C@@H](NC(=O)[C@H](C)NC(=O)CCCC[C@@H]1SC[C@@H]2NC(=O)N[C@@H]21)C(C)C)C(=O)N[C@@H](CCCNC(=N)N)C(=O)O [biotinylated G/A-PE(22-28)] (Biotin-AVSWGLR-OH; N-terminus and C-terminus assumed),escape latencies in the learned helplessness test,[1],capable of reducing the escape latencies
same,neurogenesis (BrdU-positive cells of the hippocampus),[2],increase neurogenesis more strongly than peptide PE(22-28); also recorded: capable of inducing an increase in neurogenesis
same,PSD-95 synaptic protein expression (synaptogenesis),[3],increased PSD-95 synaptic protein expression
"GVSWGLR (Peptide PE(22-28)) [base peptide derived from the propeptide, used for design of other peptides]",blocking of arachidonic acid (aa) activated TREK-1 / potassium currents on ßTC3 cells,[4],blocks arachidonic acid (aa) sensitive potassium currents
same,blocking of arachidonic acid (aa) activated TREK-1 / potassium currents on LNCaP cells,[5],blocks arachidonic acid (aa) sensitive potassium currents; also recorded: capable of blocking the TREK-1 channels
same,growth of LNCaP cells,[6],inhibits their growth; also recorded: capable of inhibiting the cell growth
QDRLDAPPPPAAPLPRWSGPIGVSWGLRAAAAGGAFPRGGRWRR (Propeptide PE),blocking of TREK-1 channel activity,[7],able to block the activity of the TREK-1 channel
